Data as given in patent publication US7727736B2, “Soluble phospholipids for use in clotting factor assays” (The University of North Carolina at Chapel Hill, priority 2003, dated 2010).

Tests used:
FXa = FXa (Homo sapiens, UniProt P00742); experiment: Native gel electrophoresis (Ferguson analysis), C6PS bound to FXa; assay type: binding; set-up: Human prothrombin and factor Xa; purchased Hematologic Technologies Inc. (Essex Junction, Vt.); conditions: 400 μM C6PS
Experimental: Native Gel Electrophoresis. This method has been used to document the association of blood coagulation proteins in solution (Majumder, et al. (2002) supra; Majumder, et al. (2003) supra). A mixture of 1 nM FXa and 1 nM FVa was incubated at 37° C. for 2 minutes in the presence and absence of 400 μM C6PS and the two samples were run together with known marker proteins (270 kiloDalton-14.2 kiloDalton; SIGMA, St. Louis, Mo.) on five gels (5, 6, 6.5, 7, and 8% total acrylamide with bisacrylamide/acrylamide being 1/29 in all cases) in a BIORAD® MINI-PROTEAN® II minigel apparatus (BIORAD® Corp., Hercules, Calif.) and stained with colloidal Coomassie blue (Mitra, et al. (1994) supra). FXa and FVa, at these same concentrations and in the presence of 400 μM C6PS, were run separately as controls. Protein retardation coefficients, which depend to a good approximation only on the hydrodynamic size and shape of the protein, were determined for both the marker and unknown proteins (Ferguson (1964) Metabolism 13:985-1002). A log-log plot of the retardation coefficient against the molecular weights of the marker proteins produced a linear curve from which the molecular weight of the FVa•FXa complex was determined from its measured retardation coefficient (Bryan (1977) Anal. Biochem. 78(2):513-9). […]

FXa•FVa2 complex = target: T1, FXa•FVa2 complex (Homo sapiens, UniProt P00742+P12259); experiment: Native gel electrophoresis (Ferguson analysis), C6PS bound to FXa•FVa2 complex; assay type: binding
T1 construct: Human prothrombin and factor Xa; tissue Hematologic Technologies Inc. (factor Xa only); factor Xa purchased
Experimental: A mixture of FXa and FVa2 in the absence (lane 1 of gel) and presence (lane 2) of 400 μM C6PS (5 mM Ca^2+) was analyzed by native polyacrylamide gel electrophoresis on a standard 6% gel (Majumder, et al. (2002) supra). A log-log plot of retardation coefficients versus molecular mass of different reference proteins is also shown (open circles). Points have been added to this plot for retardation coefficients obtained for FXa (triangle) or FVa2 (4-point star) in the absence of C6PS, and of the FXa•FVa2 complex (5-point star) formed in the presence of C6PS. The apparent molecular weight of the complex, as identified from this plot, was 224±3.7 kilodaltons.
Native Gel Electrophoresis. This method has been used to document the association of blood coagulation proteins in solution (Majumder, et al. (2002) supra; Majumder, et al. (2003) supra). […] Protein retardation coefficients, which depend to a good approximation only on the hydrodynamic size and shape of the protein, were determined for both the marker and unknown proteins (Ferguson (1964) Metabolism 13:985-1002). A log-log plot of the retardation coefficient against the molecular weights of the marker proteins produced a linear curve from which the molecular weight of the FVa•FXa complex was determined from its measured retardation coefficient (Bryan (1977) Anal. Biochem. 78(2):513-9). […]

T1 sequence (P00742 41-179 limits assumed): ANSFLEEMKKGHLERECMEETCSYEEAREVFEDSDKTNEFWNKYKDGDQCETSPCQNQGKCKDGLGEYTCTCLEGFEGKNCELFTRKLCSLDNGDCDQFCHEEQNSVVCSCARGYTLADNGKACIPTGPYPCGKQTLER
T1 sequence (P00742 235-488 limits assumed): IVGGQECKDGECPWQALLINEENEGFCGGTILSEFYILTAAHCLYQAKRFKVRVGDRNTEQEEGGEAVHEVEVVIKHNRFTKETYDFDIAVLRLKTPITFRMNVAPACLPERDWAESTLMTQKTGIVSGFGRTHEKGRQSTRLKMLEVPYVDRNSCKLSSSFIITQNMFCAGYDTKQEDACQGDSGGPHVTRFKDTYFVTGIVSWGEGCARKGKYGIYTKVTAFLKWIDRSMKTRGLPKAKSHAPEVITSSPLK
T1 sequence (P12259 29-737 limits assumed): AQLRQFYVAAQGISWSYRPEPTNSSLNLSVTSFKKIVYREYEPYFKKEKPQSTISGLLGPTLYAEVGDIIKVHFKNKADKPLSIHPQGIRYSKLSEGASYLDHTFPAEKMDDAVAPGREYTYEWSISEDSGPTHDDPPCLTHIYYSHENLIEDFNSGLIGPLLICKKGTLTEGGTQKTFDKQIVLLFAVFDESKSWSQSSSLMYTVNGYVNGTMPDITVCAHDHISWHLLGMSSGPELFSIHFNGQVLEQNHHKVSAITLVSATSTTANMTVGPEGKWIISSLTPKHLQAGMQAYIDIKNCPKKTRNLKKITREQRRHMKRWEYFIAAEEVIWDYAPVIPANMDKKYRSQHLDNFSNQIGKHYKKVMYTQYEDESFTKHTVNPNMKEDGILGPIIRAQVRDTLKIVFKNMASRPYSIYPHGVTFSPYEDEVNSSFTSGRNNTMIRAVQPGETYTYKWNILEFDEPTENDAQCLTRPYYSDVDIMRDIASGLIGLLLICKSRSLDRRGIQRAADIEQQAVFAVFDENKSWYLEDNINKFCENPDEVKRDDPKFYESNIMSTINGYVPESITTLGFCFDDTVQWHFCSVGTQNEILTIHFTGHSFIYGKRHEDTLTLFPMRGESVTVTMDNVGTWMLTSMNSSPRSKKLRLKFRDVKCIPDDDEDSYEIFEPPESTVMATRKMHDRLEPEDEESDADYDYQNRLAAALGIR
T1 sequence (P12259 1574-2224 limits assumed): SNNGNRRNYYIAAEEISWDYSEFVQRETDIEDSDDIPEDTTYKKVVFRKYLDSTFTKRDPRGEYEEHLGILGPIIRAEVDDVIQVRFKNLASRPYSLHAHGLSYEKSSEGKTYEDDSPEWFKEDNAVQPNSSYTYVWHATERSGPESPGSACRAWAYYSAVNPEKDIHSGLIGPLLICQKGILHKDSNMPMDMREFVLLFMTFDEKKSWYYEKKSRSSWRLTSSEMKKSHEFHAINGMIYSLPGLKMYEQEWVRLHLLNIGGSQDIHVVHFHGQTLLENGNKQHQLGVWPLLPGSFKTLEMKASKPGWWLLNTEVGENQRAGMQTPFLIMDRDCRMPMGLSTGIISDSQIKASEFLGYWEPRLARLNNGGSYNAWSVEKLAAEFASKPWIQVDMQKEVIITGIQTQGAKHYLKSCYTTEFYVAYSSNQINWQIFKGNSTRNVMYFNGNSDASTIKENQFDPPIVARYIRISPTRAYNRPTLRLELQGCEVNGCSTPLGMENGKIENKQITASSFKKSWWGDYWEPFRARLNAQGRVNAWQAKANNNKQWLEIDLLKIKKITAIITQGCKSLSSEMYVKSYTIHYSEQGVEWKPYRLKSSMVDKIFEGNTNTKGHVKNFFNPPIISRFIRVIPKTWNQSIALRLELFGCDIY
Chain of FXa (P00742 41-179 limits assumed): as the sequence (P00742 41-179 limits assumed) above
Chain of FXa (P00742 235-488 limits assumed): as the sequence (P00742 235-488 limits assumed) above

Structure (SMILES): CCCCCC(=O)OC[C@H](COP(=O)(O)OC[C@H](N)C(=O)O)OC(=O)CCCCC [C6PS, 1,2-dicaproyl-sn-glycero-3-phospho-L-serine]
- molecules of C6PS bound to FXa from molecular mass (FXa): 1.5 molecules
- C6PS in stoichiometry Xa:Va2:C6PS of the complex from molecular mass (FXa•FVa2 complex; 400 μM C6PS): 3.4±7.7
- most likely number of C6PS molecules bound to the complex (FXa•FVa2 complex; based on equilibrium dialysis stoichiometries): 5-6 molecules
